The values below come from patent US9499550B2 (BRISTOL-MYERS SQUIBB COMPANY, priority 2012, dated 2016).

Experiment [1] deals with HCV genotype 1b (Con1) replicon in HUH-7 cells. Kind of experiment: HCV replicon luciferase reporter assay, genotype 1b. The format is cell-based. As to conditions: Hepatitis C virus, Huh-7, 72 h, HCV genotype 1b replicon luciferase, 3 days incubation, read-out: LE_1b (EC50, range). In short, it runs like this: (§1)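 Replicon inhibition for both genotypes was measured as Renilla luciferase signal (EnduRen, 7.5 μM final, 2 h) after 3-day, 37° C exposure of replicon-bearing HUH-7 cells in 4% FCS DMEM, 0.5% DMSO. The 1b construct carries S1179I; the 1a H77 construct carries P1496L and S2204I. Twenty-point, 3-fold dilutions were fitted four-parametrically for EC50, and CC50 was taken from multiplexed Cell Titer-Blue.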

The subject of experiment [2] is HCV genotype 1a (H77 strain) replicon in HUH-7 cells. The experiment can be described thus: HCV replicon luciferase reporter assay, genotype 1a. To be noted: Hepatitis C virus, Huh-7, 72 h, HCV genotype 1a replicon luciferase, 3 days incubation, read-out: LE_1a (EC50, range). The format is cell-based. In short, it runs like this:
as §1
(Replicon systems follow genome replication, usually without infectious particles.)

As a reminder, the EC50 is the midpoint of the concentration-response curve. For `CCOc1cc2ccnc(O[C@@H]3C[C@H]4C(=O)N[C@]5(C(=O)NS(=O)(=O)C6(CF)CC6)C[C@H]5/C=C\CC[C@@H](C)C[C@@H](C)[C@H](NC(=O)OC(C)(C)C)C(=O)N4C3)c2cc1F` [Compound 5411, tert-butyl ((2R,6S,7R,9R,13aS,14aR,16aS,Z)-2-((6-ethoxy-7-fluoroisoquinolin-1-yl)oxy)-14a-(((1-(fluoromethyl)cyclopropyl)sulfonyl)carbamoyl)-7,9-dimethyl-5,16-dioxo-1,2,3,5,6,7,8,9,10,11,13a,14,14a,15,16,16a-hexadecahydrocyclopropa[e]pyrrolo[1,2-a][1,4]diazacyclopentadecin-6-yl)carbamate], the EC50 in experiment [1] was 0.51 to 1 nM; in experiment [2] it was 1.01 to 5 nM.
The matching figures for `CCOc1cc2ccnc(O[C@@H]3C[C@H]4C(=O)N[C@]5(C(=O)NS(=O)(=O)C6(CF)CC6)C[C@H]5/C=C\CC[C@@H](C)C[C@@H](C)[C@H](NC(=O)OC(C)(C)C(F)(F)F)C(=O)N4C3)c2cc1F` [Compound 5413, 1,1,1-trifluoro-2-methylpropan-2-yl((2R,6S,7R,9R,13aS,14aR,16aS,Z)-2-((6-ethoxy-7-fluoroisoquinolin-1-yl)oxy)-14a-(((1-(fluoromethyl)cyclopropyl)sulfonyl)carbamoyl)-7,9-dimethyl-5,16-dioxo-1,2,3,5,6,7,8,9,10,11,13a,14,14a,15,16,16a-hexadecahydrocyclopropa[e]pyrrolo[1,2-a][1,4]diazacyclopentadecin-6-yl)carbamate]: 0.51 to 1 nM and 1.01 to 5 nM.
As to `CCOc1cc2ccnc(O[C@@H]3C[C@H]4C(=O)N[C@]5(C(=O)NS(=O)(=O)C6(CF)CC6)C[C@H]5/C=C\CC[C@@H](C)C[C@@H](C)[C@H](NC(=O)OC(C)(C)C(C)(F)F)C(=O)N4C3)c2cc1F` [Compound 5415, 3,3-difluoro-2-methylbutan-2-yl((2R,6S,7R,9R,13aS,14aR,16aS,Z)-2-((6-ethoxy-7-fluoroisoquinolin-1-yl)oxy)-14a-(((1-(fluoromethyl)cyclopropyl)sulfonyl)carbamoyl)-7,9-dimethyl-5,16-dioxo-1,2,3,5,6,7,8,9,10,11,13a,14,14a,15,16,16a-hexadecahydrocyclopropa[e]pyrrolo[1,2-a][1,4]diazacyclopentadecin-6-yl)carbamate], the EC50 in experiment [1] fell in the range of 0.51 to 1 nM; in experiment [2], 1.01 to 5 nM.
The matching figures for `CC[C@@H]1C[C@H](C)CC/C=C\[C@@H]2C[C@@]2(C(=O)NS(=O)(=O)C2(C)CC2)NC(=O)[C@@H]2C[C@@H](Oc3ncc(N4CCOCC4)c4ccccc34)CN2C(=O)[C@H]1NC(=O)OC(C)(C)C` [Compound 5417]: 1.01 to 5 nM and 1.01 to 5 nM.
In the case of `CC[C@@H]1C[C@H](C)CC/C=C\[C@@H]2C[C@@]2(C(=O)NS(=O)(=O)C2(C)CC2)NC(=O)[C@@H]2C[C@@H](Oc3ncc(N4CCOCC4)c4ccccc34)CN2C(=O)[C@H]1NC(=O)OC(C)(C)C(F)(F)F` [Compound 5419, 1,1,1-trifluoro-2-methylpropan-2-yl((2R,6S,7R,9R,13aS,14aR,16aS,Z)-7-ethyl-9-methyl-14a-(((1-methylcyclopropyl)sulfonyl)carbamoyl)-2-((4-morpholinoisoquinolin-1-yl)oxy)-5,16-dioxo-1,2,3,5,6,7,8,9,10,11,13a,14,14a,15,16,16a-hexadecahydrocyclopropa[e]pyrrolo[1,2-a][1,4]diazacyclopentadecin-6-yl)carbamate], the concentration for a half-maximal effect (EC50) in experiment [1] was 0.51 to 1 nM; in experiment [2] it was 1.01 to 5 nM.
As to `C[C@@H]1CC/C=C\[C@@H]2C[C@@]2(C(=O)NS(=O)(=O)C2(C)CC2)NC(=O)[C@@H]2C[C@@H](Oc3ncc(N4CCOCC4)c4ccccc34)CN2C(=O)[C@@H](NC(=O)OC(C)(C)C)[C@H](C)C1` [Compound 5421, tert-butyl ((2R,6S,7R,9R,13aS,14aR,16aS,Z)-7,9-dimethyl-14a-(((1-methylcyclopropyl)sulfonyl)carbamoyl)-2-((4-morpholinoisoquinolin-1-yl)oxy)-5,16-dioxo-1,2,3,5,6,7,8,9,10,11,13a,14,14a,15,16,16a-hexadecahydrocyclopropa[e]pyrrolo[1,2-a][1,4]diazacyclopentadecin-6-yl)carbamate], the concentration giving a half-maximal response (EC50) lay in the range of 0.51 to 1 nM in experiment [1] and 1.01 to 5 nM in experiment [2].
The corresponding values for `C[C@@H]1CC/C=C\[C@@H]2C[C@@]2(C(=O)NS(=O)(=O)C2(C)CC2)NC(=O)[C@@H]2C[C@@H](Oc3ncc(N4CCOCC4)c4ccccc34)CN2C(=O)[C@@H](NC(=O)OC(C)(C)C(F)(F)F)[C@H](C)C1` [Compound 5423, 1,1,1-trifluoro-2-methylpropan-2-yl((2R,6S,7R,9R,13aS,14aR,16aS,Z)-7,9-dimethyl-14a-(((1-methylcyclopropyl)sulfonyl)carbamoyl)-2-((4-morpholinoisoquinolin-1-yl)oxy)-5,16-dioxo-1,2,3,5,6,7,8,9,10,11,13a,14,14a,15,16,16a-hexadecahydrocyclopropa[e]pyrrolo[1,2-a][1,4]diazacyclopentadecin-6-yl)carbamate] are 0.51 to 1 nM and 1.01 to 5 nM.
The corresponding values for `CC[C@@H]1C[C@H](C)CC/C=C\[C@@H]2C[C@@]2(C(=O)NS(=O)(=O)C2(CF)CC2)NC(=O)[C@@H]2C[C@@H](Oc3nccc4c5c(ccc34)OCCO5)CN2C(=O)[C@H]1NC(=O)OC(C)(C)C` [Compound 5425, tert-butyl ((2R,6S,7R,9R,13aS,14aR,16aS,Z)-2-((2,3-dihydro-[1,4]dioxino[2,3-f]isoquinolin-7-yl)oxy)-7-ethyl-14a-(((1-(fluoromethyl)cyclopropyl)sulfonyl)carbamoyl)-9-methyl-5,16-dioxo-1,2,3,5,6,7,8,9,10,11,13a,14,14a,15,16,16a-hexadecahydrocyclopropa[e]pyrrolo[1,2-a][1,4]diazacyclopentadecin-6-yl)carbamate] are 1.01 to 5 nM and 1.01 to 5 nM.
The matching figures for `CC[C@@H]1C[C@H](C)CC/C=C\[C@@H]2C[C@@]2(C(=O)NS(=O)(=O)C2(CF)CC2)NC(=O)[C@@H]2C[C@@H](Oc3nccc4c5c(ccc34)OCCO5)CN2C(=O)[C@H]1NC(=O)OC(C)(C)C(F)(F)F` [Compound 5427, 1,1,1-trifluoro-2-methylpropan-2-yl((2R,6S,7R,9R,13aS,14aR,16aS,Z)-2-((2,3-dihydro-[1,4]dioxino[2,3-f]isoquinolin-7-yl)oxy)-7-ethyl-14a-(((1-(fluoromethyl)cyclopropyl)sulfonyl)carbamoyl)-9-methyl-5,16-dioxo-1,2,3,5,6,7,8,9,10,11,13a,14,14a,15,16,16a-hexadecahydrocyclopropa[e]pyrrolo[1,2-a][1,4]diazacyclopentadecin-6-yl)carbamate]: 5.01 to 35 nM and 5.01 to 35 nM.
With `[2H]C([2H])([2H])C(OC(=O)N[C@@H]1C(=O)N2C[C@H](Oc3nccc4cc(OC)c(F)cc34)C[C@H]2C(=O)N[C@]2(C(=O)NS(=O)(=O)C3(C)CC3)C[C@H]2/C=C\CC[C@@H](C)C[C@H]1CC)(C([2H])([2H])[2H])C(F)(F)F` [Compound 5429], the EC50 in experiment [1] and in experiment [2] was 1.01 to 5 nM throughout.
Turning to `[2H]C([2H])([2H])C(OC(=O)N[C@@H]1C(=O)N2C[C@H](Oc3ncc(OC)c4ccccc34)C[C@H]2C(=O)N[C@]2(C(=O)NS(=O)(=O)C3(C)CC3)C[C@H]2/C=C\CC[C@@H](C)C[C@H]1CC)(C([2H])([2H])[2H])C(F)(F)F` [Compound 5431], the EC50 in experiment [1] and in experiment [2] was 1.01 to 5 nM throughout.
On to `[2H]C([2H])([2H])C(OC(=O)N[C@@H]1C(=O)N2C[C@H](Oc3ncc(OC)c4ccccc34)C[C@H]2C(=O)N[C@]2(C(=O)NS(=O)(=O)C3CC3)C[C@H]2/C=C\CC[C@@H](C)C[C@H]1CC)(C([2H])([2H])[2H])C(F)(F)F` [Compound 5433], for which the figures for the EC50 in experiment [1] and in experiment [2] were 0.1 to 0.5 nM and 0.51 to 1 nM, respectively.
The corresponding values for `CC[C@@H]1C[C@@H](C)CC/C=C\[C@@H]2C[C@@]2(C(=O)NS(=O)(=O)C2(C)CC2)NC(=O)[C@@H]2C[C@@H](Oc3nccc4cc(OC)c(F)cc34)CN2C(=O)[C@H]1NC(=O)OC(C)(C)C(C)(F)F` [Compound 5434, 3,3-difluoro-2-methylbutan-2-yl((2R,6S,7R,9S,13aS,14aR,16aS,Z)-7-ethyl-2-((7-fluoro-6-methoxyisoquinolin-1-yl)oxy)-9-methyl-14a-(((1-methylcyclopropyl)sulfonyl)carbamoyl)-5,16-dioxo-1,2,3,5,6,7,8,9,10,11,13a,14,14a,15,16,16a-hexadecahydrocyclopropa[e]pyrrolo[1,2-a][1,4]diazacyclopentadecin-6-yl)carbamate] are 1.01 to 5 nM and 1.01 to 5 nM.
The corresponding values for `CC[C@@H]1C[C@H](C)CC/C=C\[C@@H]2C[C@@]2(C(=O)NS(=O)(=O)C2(C)CC2)NC(=O)[C@@H]2C[C@@H](Oc3nccc4cc(OC)c(F)cc34)CN2C(=O)[C@H]1NC(=O)OC(C)(C)C(C)(F)F` [Compound 5435, 3,3-difluoro-2-methylbutan-2-yl((2R,6S,7R,9R,13aS,14aR,16aS,Z)-7-ethyl-2-((7-fluoro-6-methoxyisoquinolin-1-yl)oxy)-9-methyl-14a-(((1-methylcyclopropyl)sulfonyl)carbamoyl)-5,16-dioxo-1,2,3,5,6,7,8,9,10,11,13a,14,14a,15,16,16a-hexadecahydrocyclopropa[e]pyrrolo[1,2-a][1,4]diazacyclopentadecin-6-yl)carbamate] are 1.01 to 5 nM and 1.01 to 5 nM.
